Experimental data published in ChEMBL document CHEMBL5678818, “Discovery of potent SOS1 inhibitors that block RAS activation via disruption of the RAS-SOS1 interaction” (Proc Natl Acad Sci U S A, 2019).

Columns and labels:
[1] = biological target: T1, Serine/threonine-protein kinase LATS1 (Homo sapiens) (UniProt O95835); experiment: Inhibition of LATS1 (unknown origin) assessed as residual activity at 1000 nM by KINOMEscan analysis relative to control
T1 sequence (whole entry): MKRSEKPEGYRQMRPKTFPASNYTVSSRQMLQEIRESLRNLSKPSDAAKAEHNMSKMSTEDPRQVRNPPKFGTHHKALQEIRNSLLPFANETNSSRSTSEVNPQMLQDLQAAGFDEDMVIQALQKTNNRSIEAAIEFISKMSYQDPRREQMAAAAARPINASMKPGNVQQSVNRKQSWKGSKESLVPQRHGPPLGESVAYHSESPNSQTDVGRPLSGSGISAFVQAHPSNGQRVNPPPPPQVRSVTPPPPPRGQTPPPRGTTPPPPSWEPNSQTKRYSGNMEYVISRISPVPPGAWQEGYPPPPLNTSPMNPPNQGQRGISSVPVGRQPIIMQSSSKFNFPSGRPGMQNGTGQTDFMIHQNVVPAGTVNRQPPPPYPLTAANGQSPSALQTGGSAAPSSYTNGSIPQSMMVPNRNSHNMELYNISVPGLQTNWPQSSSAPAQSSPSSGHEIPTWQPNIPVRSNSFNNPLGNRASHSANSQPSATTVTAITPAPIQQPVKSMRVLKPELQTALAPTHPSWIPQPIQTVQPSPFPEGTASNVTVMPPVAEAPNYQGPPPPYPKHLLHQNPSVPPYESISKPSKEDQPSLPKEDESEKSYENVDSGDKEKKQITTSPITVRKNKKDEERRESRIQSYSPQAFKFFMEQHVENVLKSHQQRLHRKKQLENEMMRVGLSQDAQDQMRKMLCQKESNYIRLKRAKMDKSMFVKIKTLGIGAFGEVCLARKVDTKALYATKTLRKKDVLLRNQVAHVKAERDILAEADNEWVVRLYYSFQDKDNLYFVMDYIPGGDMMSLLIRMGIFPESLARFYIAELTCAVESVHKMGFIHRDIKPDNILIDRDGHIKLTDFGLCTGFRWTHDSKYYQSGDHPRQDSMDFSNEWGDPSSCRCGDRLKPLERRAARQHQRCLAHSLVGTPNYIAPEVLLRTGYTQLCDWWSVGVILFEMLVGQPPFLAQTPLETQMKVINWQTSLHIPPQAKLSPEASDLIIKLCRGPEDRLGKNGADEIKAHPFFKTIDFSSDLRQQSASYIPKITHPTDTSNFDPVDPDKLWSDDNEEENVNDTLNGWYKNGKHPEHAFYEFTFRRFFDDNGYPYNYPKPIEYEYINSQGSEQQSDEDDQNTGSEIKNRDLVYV

[2] = biological target: Leukocyte tyrosine kinase receptor (Homo sapiens) (UniProt P29376); experiment: Inhibition of LTK (unknown origin) assessed as residual activity at 1000 nM by KINOMEscan analysis relative to control
Chain of Leukocyte tyrosine kinase receptor (Homo sapiens) (P29376 whole entry): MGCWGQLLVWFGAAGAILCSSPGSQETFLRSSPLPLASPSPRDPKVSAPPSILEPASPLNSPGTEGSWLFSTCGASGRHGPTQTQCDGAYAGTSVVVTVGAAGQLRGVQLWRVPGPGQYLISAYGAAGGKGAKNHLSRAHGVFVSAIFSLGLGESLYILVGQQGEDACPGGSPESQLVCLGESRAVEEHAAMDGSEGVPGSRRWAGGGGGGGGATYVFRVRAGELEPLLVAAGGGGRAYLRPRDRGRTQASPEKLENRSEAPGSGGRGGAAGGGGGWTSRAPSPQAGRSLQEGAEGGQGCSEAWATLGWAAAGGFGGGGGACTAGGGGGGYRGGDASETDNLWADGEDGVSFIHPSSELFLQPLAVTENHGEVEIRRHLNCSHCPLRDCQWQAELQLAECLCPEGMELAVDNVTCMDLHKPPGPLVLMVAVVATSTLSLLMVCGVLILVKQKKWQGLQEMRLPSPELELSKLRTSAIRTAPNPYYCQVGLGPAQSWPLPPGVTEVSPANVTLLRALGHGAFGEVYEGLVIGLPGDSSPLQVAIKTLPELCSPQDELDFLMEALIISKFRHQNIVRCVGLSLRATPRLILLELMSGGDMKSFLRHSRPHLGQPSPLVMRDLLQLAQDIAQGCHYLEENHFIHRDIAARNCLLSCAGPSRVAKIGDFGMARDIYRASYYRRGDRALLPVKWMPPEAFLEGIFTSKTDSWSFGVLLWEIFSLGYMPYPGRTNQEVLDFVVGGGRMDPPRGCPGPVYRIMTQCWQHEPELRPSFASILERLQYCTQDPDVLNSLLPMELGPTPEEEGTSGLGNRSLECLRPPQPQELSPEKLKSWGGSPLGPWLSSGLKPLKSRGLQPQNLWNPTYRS

[3] = biological target: ALK tyrosine kinase receptor (Homo sapiens) (UniProt Q9UM73); experiment: Inhibition of ALK (unknown origin) assessed as residual activity at 1000 nM by KINOMEscan analysis relative to control
Chain of ALK tyrosine kinase receptor (Homo sapiens) (Q9UM73 19-1620 limits assumed): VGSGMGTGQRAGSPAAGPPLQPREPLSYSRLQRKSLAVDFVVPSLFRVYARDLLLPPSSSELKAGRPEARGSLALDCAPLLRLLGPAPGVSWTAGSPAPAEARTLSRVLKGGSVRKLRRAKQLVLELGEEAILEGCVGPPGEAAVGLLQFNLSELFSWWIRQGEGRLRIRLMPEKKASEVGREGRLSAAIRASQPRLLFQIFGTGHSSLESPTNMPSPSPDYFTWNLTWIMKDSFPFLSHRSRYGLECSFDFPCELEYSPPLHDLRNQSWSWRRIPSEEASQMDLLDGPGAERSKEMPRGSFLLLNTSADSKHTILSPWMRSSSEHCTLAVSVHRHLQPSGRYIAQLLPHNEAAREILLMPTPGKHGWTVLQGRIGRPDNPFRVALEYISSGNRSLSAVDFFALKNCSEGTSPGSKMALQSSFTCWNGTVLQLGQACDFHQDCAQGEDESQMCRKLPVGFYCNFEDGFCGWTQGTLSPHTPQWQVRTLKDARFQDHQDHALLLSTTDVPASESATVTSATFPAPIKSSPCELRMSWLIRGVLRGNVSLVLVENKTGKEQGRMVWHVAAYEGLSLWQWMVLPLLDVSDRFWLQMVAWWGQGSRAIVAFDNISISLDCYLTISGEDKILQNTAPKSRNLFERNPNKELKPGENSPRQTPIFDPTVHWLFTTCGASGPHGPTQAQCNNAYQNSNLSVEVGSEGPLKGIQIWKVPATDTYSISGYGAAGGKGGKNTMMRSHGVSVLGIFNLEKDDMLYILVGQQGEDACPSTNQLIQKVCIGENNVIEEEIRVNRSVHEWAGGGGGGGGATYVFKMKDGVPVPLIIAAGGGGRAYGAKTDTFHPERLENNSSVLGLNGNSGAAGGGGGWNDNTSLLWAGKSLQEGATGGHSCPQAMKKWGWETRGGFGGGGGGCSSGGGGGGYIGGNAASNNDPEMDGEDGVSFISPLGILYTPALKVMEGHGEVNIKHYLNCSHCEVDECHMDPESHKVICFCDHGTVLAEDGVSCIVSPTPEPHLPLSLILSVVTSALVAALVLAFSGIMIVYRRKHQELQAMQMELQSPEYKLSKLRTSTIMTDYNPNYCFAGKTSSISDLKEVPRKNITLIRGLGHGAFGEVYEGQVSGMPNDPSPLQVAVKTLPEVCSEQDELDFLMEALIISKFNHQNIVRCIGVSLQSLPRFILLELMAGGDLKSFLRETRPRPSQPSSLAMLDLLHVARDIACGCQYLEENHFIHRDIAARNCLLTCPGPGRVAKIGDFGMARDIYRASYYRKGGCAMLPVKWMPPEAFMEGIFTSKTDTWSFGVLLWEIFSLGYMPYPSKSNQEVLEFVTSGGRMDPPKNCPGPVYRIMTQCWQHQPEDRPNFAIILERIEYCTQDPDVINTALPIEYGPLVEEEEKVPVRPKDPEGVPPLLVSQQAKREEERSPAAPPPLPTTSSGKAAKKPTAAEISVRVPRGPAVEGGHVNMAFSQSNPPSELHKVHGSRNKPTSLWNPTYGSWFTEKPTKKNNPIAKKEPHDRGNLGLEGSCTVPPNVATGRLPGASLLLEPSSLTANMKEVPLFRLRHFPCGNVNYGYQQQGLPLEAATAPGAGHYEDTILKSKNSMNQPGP

[4] = biological target: Peripheral plasma membrane protein CASK (Homo sapiens) (UniProt O14936); experiment: Inhibition of CASK (unknown origin) assessed as residual activity at 1000 nM by KINOMEscan analysis relative to control
Chain of Peripheral plasma membrane protein CASK (Homo sapiens) (O14936 whole entry, looked up): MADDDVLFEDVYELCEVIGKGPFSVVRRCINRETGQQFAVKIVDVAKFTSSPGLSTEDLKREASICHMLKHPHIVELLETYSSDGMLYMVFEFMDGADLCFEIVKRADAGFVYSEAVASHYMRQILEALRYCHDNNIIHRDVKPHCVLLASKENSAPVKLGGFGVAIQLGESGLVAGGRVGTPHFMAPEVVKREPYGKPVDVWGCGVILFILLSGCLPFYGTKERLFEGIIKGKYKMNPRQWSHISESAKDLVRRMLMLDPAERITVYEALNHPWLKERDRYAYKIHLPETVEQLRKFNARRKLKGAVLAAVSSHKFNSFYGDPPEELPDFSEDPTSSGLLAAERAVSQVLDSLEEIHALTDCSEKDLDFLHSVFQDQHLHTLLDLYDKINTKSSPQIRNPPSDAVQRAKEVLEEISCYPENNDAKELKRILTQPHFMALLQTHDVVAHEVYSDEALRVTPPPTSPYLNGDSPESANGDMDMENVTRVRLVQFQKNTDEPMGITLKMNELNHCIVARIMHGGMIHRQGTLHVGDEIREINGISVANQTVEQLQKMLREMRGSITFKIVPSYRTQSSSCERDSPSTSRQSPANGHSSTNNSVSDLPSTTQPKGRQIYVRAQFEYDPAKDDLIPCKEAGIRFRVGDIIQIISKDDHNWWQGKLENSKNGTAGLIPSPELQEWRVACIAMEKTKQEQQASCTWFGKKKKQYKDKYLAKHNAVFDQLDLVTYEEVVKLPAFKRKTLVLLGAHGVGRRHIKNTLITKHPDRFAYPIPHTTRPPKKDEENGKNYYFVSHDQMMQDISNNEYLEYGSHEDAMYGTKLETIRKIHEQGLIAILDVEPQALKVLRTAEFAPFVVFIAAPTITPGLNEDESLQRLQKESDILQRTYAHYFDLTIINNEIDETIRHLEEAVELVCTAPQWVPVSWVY

[5] = biological target: Serine/threonine-protein kinase Nek7 (Homo sapiens) (UniProt Q8TDX7); experiment: Inhibition of NEK7 (unknown origin) assessed as residual activity at 1000 nM by KINOMEscan analysis relative to control
Chain of Serine/threonine-protein kinase Nek7 (Homo sapiens) (Q8TDX7 whole entry, looked up): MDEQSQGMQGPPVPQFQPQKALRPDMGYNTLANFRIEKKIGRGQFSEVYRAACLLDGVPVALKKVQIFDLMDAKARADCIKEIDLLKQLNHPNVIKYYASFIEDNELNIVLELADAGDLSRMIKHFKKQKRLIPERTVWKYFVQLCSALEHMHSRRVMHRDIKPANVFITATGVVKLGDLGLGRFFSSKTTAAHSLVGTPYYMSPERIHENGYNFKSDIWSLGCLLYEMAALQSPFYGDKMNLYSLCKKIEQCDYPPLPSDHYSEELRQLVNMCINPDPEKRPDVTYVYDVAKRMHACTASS

[6] = biological target: 5'-AMP-activated protein kinase catalytic subunit alpha-1 (Homo sapiens) (UniProt Q13131); experiment: Inhibition of AMPK-alpha1 (unknown origin) assessed as residual activity at 1000 nM by KINOMEscan analysis relative to control
Chain of 5'-AMP-activated protein kinase catalytic subunit alpha-1 (Homo sapiens) (Q13131 whole entry, looked up): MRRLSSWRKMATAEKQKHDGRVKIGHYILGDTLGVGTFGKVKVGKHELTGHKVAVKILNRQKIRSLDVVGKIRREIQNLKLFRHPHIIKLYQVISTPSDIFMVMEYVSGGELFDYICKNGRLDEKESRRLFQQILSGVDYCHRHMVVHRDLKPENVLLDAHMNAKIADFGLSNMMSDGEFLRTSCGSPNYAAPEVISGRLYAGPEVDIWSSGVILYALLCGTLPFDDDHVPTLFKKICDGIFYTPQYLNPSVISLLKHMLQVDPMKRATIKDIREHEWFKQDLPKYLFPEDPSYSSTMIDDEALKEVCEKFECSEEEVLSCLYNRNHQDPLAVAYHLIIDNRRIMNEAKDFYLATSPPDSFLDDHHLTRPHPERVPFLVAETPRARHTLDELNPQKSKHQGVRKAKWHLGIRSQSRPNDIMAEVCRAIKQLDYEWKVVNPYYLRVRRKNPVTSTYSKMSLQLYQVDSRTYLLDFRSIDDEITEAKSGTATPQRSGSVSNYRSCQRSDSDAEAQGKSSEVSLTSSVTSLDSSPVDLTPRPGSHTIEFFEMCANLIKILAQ

[7] = biological target: T2, Serine/threonine-protein kinase D1 (Homo sapiens) (UniProt Q15139); experiment: Inhibition of PRKD1 (unknown origin) assessed as residual activity at 1000 nM by KINOMEscan analysis relative to control
T2 sequence (whole entry): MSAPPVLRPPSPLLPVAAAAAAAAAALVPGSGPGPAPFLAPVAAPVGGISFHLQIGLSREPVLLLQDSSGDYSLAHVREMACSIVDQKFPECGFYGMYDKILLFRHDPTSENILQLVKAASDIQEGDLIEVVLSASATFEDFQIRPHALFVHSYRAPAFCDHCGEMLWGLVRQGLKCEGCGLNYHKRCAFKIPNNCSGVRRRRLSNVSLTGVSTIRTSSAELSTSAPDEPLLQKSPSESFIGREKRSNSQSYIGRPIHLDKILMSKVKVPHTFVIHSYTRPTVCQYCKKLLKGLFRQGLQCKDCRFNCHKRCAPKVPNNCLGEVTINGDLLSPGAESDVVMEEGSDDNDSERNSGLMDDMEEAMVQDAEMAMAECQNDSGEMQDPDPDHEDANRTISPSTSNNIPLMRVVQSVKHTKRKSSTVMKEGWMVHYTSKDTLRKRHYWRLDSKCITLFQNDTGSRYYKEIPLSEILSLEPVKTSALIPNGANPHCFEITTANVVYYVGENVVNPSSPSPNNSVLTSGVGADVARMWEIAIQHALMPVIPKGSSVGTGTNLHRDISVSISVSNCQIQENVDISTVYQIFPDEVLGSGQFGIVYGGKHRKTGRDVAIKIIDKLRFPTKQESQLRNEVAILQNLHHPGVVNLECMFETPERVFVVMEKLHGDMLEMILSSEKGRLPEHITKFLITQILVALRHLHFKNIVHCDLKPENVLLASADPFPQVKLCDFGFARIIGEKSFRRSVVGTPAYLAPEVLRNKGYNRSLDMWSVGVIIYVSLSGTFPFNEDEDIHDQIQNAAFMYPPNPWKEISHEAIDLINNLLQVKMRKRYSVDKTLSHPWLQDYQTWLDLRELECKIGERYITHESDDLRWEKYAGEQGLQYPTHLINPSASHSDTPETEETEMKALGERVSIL

| SMILES | Activity [1] [%] | Activity [2] [%] | Activity [3] [%] | Activity [4] [%] | Activity [5] [%] | Activity [6] [%] | Activity [7] [%] |
| --- | --- | --- | --- | --- | --- | --- | --- |
| COc1cc2nc(C)nc(N[C@H](C)c3cccc(-c4cn[nH]c4)c3)c2cc1OC | 98 | 100 | 100 | 78 | 89 | 82 | 85 |
| COc1cc2ncnc(N[C@H](C)c3cccc4ccccc34)c2cc1OC | 100 | 97 | 85 | 72 | 100 | 100 | 95 |
